Measurements from US8586307B2, “Methods for diagnosing epigenetic, transgenerational effects of environmental toxicants on mammalian germ-lines and treating associated diseases” (priority 2005, dated 2013).
“And” between values parts separate entries of the source, which are not always exact repeats. Equal entries are not always repeated.

Columns and labels:
[1] = test system: sperm DNA; assay: Bisulfite sequencing of sperm DNA; assay type: in vivo, rat
Experimental: Bisulfite Sequencing: Genomic DNA was isolated from F1 and F4 sperm samples using the DNeasy Tissue Kit (Qiagen, Valencia, Calif.) and digested with Rsa I. Genomic DNA was then treated with sodium bisulfite, following methods previously established. Briefly, 5 μg of digested DNA was denatured in NaOH, then treated with 4.0 M, pH 5.0 sodium metabisulfite for 16 hours at 55° C. Following desalting, DNA was desulfonated with NaOH, neutralized and precipitated with ammonium acetate and ethanol. DNA samples were resuspended in 30 μL, of 1 mM Tris buffer, pH 8.0. Sequence specific primers were generated to amplify the region of interest. PCR products were cloned into pGemT Easy vector (Promega Corporation) and sequenced. Approximately 35 clones from each PCR product were sequenced for analysis of methylation state of the CpG sites. Confirming altered methylation states involved comparisons of the sequence following the bisulfite treatment. The primers for the lysophospholipase PCR bisulfite analysis were 5′GGTATATATAGAGGAAGGTAGGTA GG3′ (SEQ ID NO:1) and 5′TAAAAACCTCCAAAAAACAAACAC T3′ (SEQ ID NO:2).
Bisulfite sequencing: Bisulfite sequencing was used to characterize the DNA methylation patterns and changes. Genomic DNA was isolated from control and vinclozolin F2 and F3 generation epididymal sperm using the DNeasy Tissue Kit. Genomic DNA (10 μg) was digested with RsaI then treated with bisulfite as described above for Example I. After purification, the bisulfite converted DNA was used as a template for PCR. The bisulfite primers for each candidate were designed using MethPrimer (www.urogene.org/methprimer) system (Li and Dahiya, 2002) and are listed in Table 2. The sequence specific primers were generated to amplify the CpG region of interest to characterize the methylation pattern. PCR conditions for amplification were as follows: 30 cycles followed by another 30 cycles with nested primers (30 s at 95° C., 45 s at 50° C., and 50 s at 72° C.) and then 5 min at 72° C. with modified 1× buffer [10×: 166 mM (NH4)2.SO4; 670 mM Tris pH 8.8; 67 mM MgCl2; 100 mM β-mercaptoethanol]. PCR products were cloned into pGEM-T easy vector (Promega) and sequenced using Big-Dye Terminator (Applied BioSystems). Approximately 50 different clones from each PCR product were sequenced to characterize the methylation state of the CpG sites identified. A mixture of a minimum of 3 different F2 or F3 generation control and vinclozolin animals were used to generate approximately 50 clones per candidate analyzed. Statistical differences between methylation states were determined with a Fisher's Exact Test.

[2] = test system: pregnant females; assay: Ovary and pregnancy outcomes in vinclozolin generation females; assay type: in vivo, rat; conditions: preliminary data
Source text: The abnormal phenotype has similarities to pre-eclampsia that include death, severe anemia and blood cell defects, occurring in approximately 15% of all pregnancies in vinclozolin-generation females. Other disease states, as such as prostate abnormalities, tumor development, abnormal immune system activation and premature aging, may be induced by the epigenetic transgenerational actions of the endocrine disruptors.

[3] = test system: spermatogenic cells; assay: Spermatogenic cell apoptosis in testis sections (TUNEL) after transient embryonic exposure; conditions: rat, in vivo
Experimental: In Vivo Procedures: Gestating outbred Sprague-Dawley and inbred Fisher mother rats from timed, pregnant colonies housed at the Washington State University Vivarium, were given intraperitoneal injections of vinclozolin (100 mg/kg/day) and methoxychlor (200 mg/kg/day) from embryonic day 8-15 (E8-E15, sperm positive vaginal smear date=E0) of gestation (F0 generation) as previously described. Gestating mothers administered vehicle, sesame oil or DMSO, served as controls. At least 6 lines (individual F0 injected females) were generated for controls and treated groups for these analyses. Male rats from control and treated groups were collected at P60-P180 for analyses. F1 treated males were bred to F1 treated females to generate the F2 treated generation and F2 treated males were bred to F2 treated females to generate the F3 generation and the F3 were bred in the same manner to generate the F4 generation. Rats for the control groups were bred in the same manner for all the generations. No inbreeding or sibling crosses were generated. The outcross group (VOC) were generated by breeding the F2 treated males with wild-type females (total of 6 litters) and reverse outcross group (RVOC) was generated by breeding F2 treated females with wild-type males (total of 3 litters). Control (n=4) and treated (n=4) male offspring from the F1 generation from Fisher strain rats were collected at P6 for DNA methylation analysis, see below. All procedures have been approved by the Washington State University Animal Care Committee. The number of animals used for replicates in the experiments (i.e. n value) are as follows for vinclozolin treatment: F1 (control 11, treated 12); F2 (control 19, treated 30); F3 (control 19, treated 26); F4 (control 10, treated 17); VOC (18); and RVOC (6). […]
Detection of Cell Apoptosis: To detect apoptotic cells in testis sections, the Fluorescien In Situ Cell Death Detection Kit (Roche Applied Science, Indianapolis, Ind.) was utilized. […] Fluorescent apoptotic cells were imaged on a confocal microscope and quantitation of number of apoptotic cells per testis cross section. […]

[4] = F2/F3 sperm DNA, one of 5 potential CpG sites
[5] = F2/F3 sperm DNA, one of 6 potential CpG sites

**Q.** Which results are given for `C=CC1(C)OC(=O)N(c2cc(Cl)cc(Cl)c2)C1=O` (stereo not drawn) [vinclozolin]?
**A.** treated sperm DNA samples with bisulfite altered sequence of the lysophospholipase gene ([1]; CpG island of lysophospholipase gene): approximately 25%; methylation differences, Candidate #7 (Ankrd28/Galntl2) ([1]; F2/F3 sperm DNA): did not have any detectable differences; methylation differences, Candidate #21, 32 (LOC503205/NCAM1) ([1]; F2/F3 sperm DNA): no differences in methylation; methylation differences, Candidate #23 (LOC503150/snRP1c) ([1]; F2/F3 sperm DNA): no differences in methylation; methylation differences, Candidate #25 (Mup4/MUP) ([1]; F2/F3 sperm DNA): no differences in methylation; CpG hypermethylated to, Candidate #29 (Runx1/Awa1p) ([1]; F2/F3 sperm DNA, 1 of 6 potential CpG sites): 48%; CpG hypermethylated to, Candidate #14, 15 (Lrrn6a) ([1]; F2/F3 sperm DNA, 2 of 4 potential CpG): 27%; CpG hypermethylated to, Candidate #26 (Acaca) ([1]; F2/F3 sperm DNA, 2 of 5 potential CpG sites): 50% and 28%; CpG hypermethylated to, Candidate #33 (Six3/Six2) ([1]; F2/F3 sperm DNA, 2 of 6 potential CpG sites): 31% and 57%; CpG hypermethylated to, Candidate #27, 28 (zinc finger protein 212) ([1]; F2/F3 sperm DNA, 2 of 8 potential CpG sites): 45% and 48%; CpG hypermethylated to, Candidate #5, 6, 9 (FLJ22405 protein) ([1]; F2/F3 sperm DNA, 2 of 9 potential CpG): 50% and 35%; CpG hypermethylated to, Candidate #17, 18 (nicastrin/Copa) ([1]; F2/F3 sperm DNA, 2 of 20 potential CpG sites): 55% and 30%; CpG hypermethylated to, Candidate #13 (Nfix) ([1]; F2/F3 sperm DNA, 4 of 17 potential CpG sites): 50-60%; methylation differences, Candidate #4, 19 (Cacna1e) ([1]; F2/F3 sperm DNA, 6 potential CpG): did not have any detectable differences in methylation; CpG hypermethylated to, Candidate #31 (Waspip/LOC499811) ([1]; F2/F3 sperm DNA, one of 4 potential CpG sites): 42%; CpG hypermethylated to, Candidate #8 (liprin-α1/Fadd) [1, 4]: 65%; CpG hypermethylated to, Candidate #22 (tgolgin-1) [1, 4]: 67%; CpG hypermethylated to, Candidate #12 (similar to importin 7) [1, 5]: 51%; CpG hypermethylated to, Candidate #16 (optineurin) [1, 5]: 79%; H19 methylation (known imprinted gene, control) ([1]; control vs vinclozolin F2/F3 sperm DNA): No change; candidate DNA sequences confirmed to have specific hypermethylation ([1]; of the 25 candidates, F2/F3 sperm DNA): 15; methylation change, Candidate #34 (RAB12) ([1]; partial region only): no change in methylation; pregnancies with abnormal phenotype similar to pre-eclampsia (death, severe anemia, blood cell defects) ([2]; F1, F2 and F3 generation pregnant females): approximately 15%; effect on the female ovary [2]: no major effect; males analyzed that had the increased spermatogenic cell apoptosis ([3]; male): Greater than 90%; effect on the spermatogenic cells in reverse outcross (RVOC) [3]: no effect; spermatogenic cell apoptosis in outcross (VOC) males [3]: increase
